Measurements: US20110311651A1, “CA[…] THE TREATMENT OF OCULAR CANCER” (priority 2008, published 2011)
“Also recorded” adds a separate entry of the source.

Columns and labels:
[1] = system: RB355 cells; test: Cytotoxicity assay for dose response in 384-well plates (Alamar Blue), RB355; type: cell-based, human
Procedure: (§1) Cytotoxicity assay for dose response in 384-well microtiter plates. Dose response studies were performed in 384-well microtiter plates (#3712, Corning Inc., Corning, N.Y.) according to the following protocol: cells were added in 45 μL medium to the screening plates using Flexdrop. After 72 h incubation was added 5 μL Alamar Blue using Flexdrop. The cells were then incubated for another 24 h, and the fluorescence intensity was read on LEADseeker™ Multimodality Imaging System as previously described. To calculate the IC50 for each compound toward each cell line, the dose response was assessed in duplicate and using 12 point doubling dilutions with 100 μM compound concentration as the upper limit. The dose response curve for each set of data was fitted separately, and the two IC50 values obtained were averaged.
To explore the structure activity relationship (SAR) within this chemical class a collection of 35 cardenolides and derivatives was constituted. The dose response for each compound toward the ocular cancer cell lines Y79, RB355, WERI-Rb-1 and C918 was then assessed.
Compared potency of the cardenolide ouabain with known agents in cell models of retinoblastoma. The potency of a representative of the cardenolide scaffold was compared to known effective agents against retinoblastoma. […]

[2] = system: Y79 cells; test: Cytotoxicity assay for dose response in 384-well plates (Alamar Blue), Y79; type: cell-based, human
Procedure: as §1
Compared potency of the cardenolide ouabain with known agents in cell models of retinoblastoma. The potency of a representative of the cardenolide scaffold was compared to known effective agents against retinoblastoma. Namely, the dose response of the drug ouabain was tested with the human retinoblastoma cell lines Y79 and RB355, and its potency was compared to vincristine, etoposide, carboplatin, cisplatin, nutlin-3 and calcitriol. […] The activity of vincristine toward Y79 cells reached a plateau at 50% inhibition, which prevented the IC50 for this compound from being calculated.

[3] = Body weight and signs of toxicity in the xenograft study; type: in vivo, mouse; conditions: throughout the treatment period
Procedure: In vivo studies. Subcutaneous xenograft experiments were performed at the Memorial Sloan-Kettering Cancer Center Antitumor Assessment Core Facility. Y79LUC cells (10E6) embedded in matrigel (BD Biosciences, San Jose, Calif.) were injected subcutaneously in the right flank of 8-weeks old ICR/SCID male mice. Treatment started when the tumors reached approximately 250 mm^3. The mice were randomized into three groups and two mice per group were treated with either 10% DMSO (v/v) (control group), 1.5 mg/kg ouabain or 15 mg/kg ouabain. Treatment was performed by continuous subcutaneous infusion using osmotic minipumps (#1007D, Alzet, Cupertino, Calif.). Tumor size was measured externally two times a week with a caliper. Body weight of each mouse was monitored as well as other signs of toxicity throughout the treatment period. Bioluminescent imaging of the tumors was performed once a week and prior to sacrifice as follows: mice were anesthetized by isofluorane inhalation and injected with D-luciferin at 50 mg/Kg (Xenogen) intraperitoneally; photonic emission was measured with the In Vivo Imaging System (IVIS 200, Xenogen) with a collection time of 5 seconds.
Assessment of the in vivo efficacy of ouabain in a xenograft model of retinoblastoma. The therapeutic effect of the drug ouabain in a mouse xenograft model of retinoblastoma was also investigated. […]

[4] = system: Y79 cells; test: Apoptosis assay, immunofluorescence detection of activated Caspase-3; type: cell-based, human; conditions: 0.5 μM, 72 h, 1% DMSO
Procedure: Apoptosis assay. Y79 cells seeded in culture medium in a 24-well plate were treated with either vincristine, etoposide, or ouabain at various concentrations in 1% DMSO (v/v) or with 1% DMSO (v/v) alone as a carrier control for 48 h or 72 h. After a wash in PBS, cells were fixed in solution in […] in PBS for 10 minutes. After a wash in PBS, cells for each condition were dried on a glass slide and washed once with water.
The immunofluorescence detection of cleaved Caspase-3 was performed at the Memorial Sloan-Kettering Cancer Center Molecular Cytology Core Facility using a Discovery XT processor (Ventana Medical Systems, Tucson, Ariz.). A rabbit polyclonal Cleaved Caspase 3 (Asp 175) antibody (#9661 L, Cell Signaling, Danvers, Mass.) was used at a concentration of 0.1 μg/ml. […] Automated fluorescence imaging of the green channel (activated Caspase-3) and blue channel (nuclei) was performed using an IN Cell Analyzer 1000 (GE Healthcare).
Compared effect of ouabain and clinical agents on apoptosis of Y79 cells. […] The drug concentrations used in this experiment were previously determined according to a pilot study where treated Y79 cells were live-stained with the dye Yo-Pro, which stains apoptic cells (Idziorek et al., J. Immunol. Methods 1995, 185, 249-258). […] Baseline Caspase-3 activation was evaluated with control Y79 cells treated with 1% DMSO (v/v) (FIG. 6A).

[5] = system: Y79 cells; test: Pilot study, live staining of treated cells with the dye Yo-Pro; type: cell-based, human; conditions: concentrations higher than 0.5 μM
Procedure: Compared effect of ouabain and clinical agents on apoptosis of Y79 cells. To determine whether the anti-proliferative effects of the drug ouabain was mediated by induction of apoptosis, immunostaining of activated Caspase-3 in Y79 cells treated with cardenolides or known agents for retinoblastoma for 72 h (green channel) was performed; treated cells were also stained with Hoechst to image the nuclei (blue channel) (FIG. 6). The drug concentrations used in this experiment were previously determined according to a pilot study where treated Y79 cells were live-stained with the dye Yo-Pro, which stains apoptic cells (Idziorek et al., J. Immunol. Methods 1995, 185, 249-258). Based on this study, 72 h was identified as the optimum incubation time and drug concentrations were selected that maximized the number of apoptotic cells (data not shown). Baseline Caspase-3 activation was evaluated with control Y79 cells treated with 1% DMSO (v/v) (FIG. 6A).

Row | Structure (SMILES) | activity toward RB355 cells below 100 μM [1] | activity toward Y79 cells below 100 μM [2] | toxicity ([3]; 15 mg/kg) | average body weight of treated versus control animals ([3]; 1.5 and 15 mg/kg) | apoptosis (activated Caspase-3) compared to baseline [4] | effect on Y79 cells in the Yo-Pro pilot study [5]
1 | C=C1/C(=C\C=C2/CCC[C@]3(C)[C@@H]([C@H](C)CCCC(C)(C)O)CC[C@@H]23)C[C@@H](O)C[C@@H]1O [calcitriol] | neither caboplatin or calcitriol had any significant activity | did not demonstrate any significant activity |  |  |  | 
2 | N.N.O=C([O-])C1(C(=O)[O-])CCC1.[Pt+2] [Carboplatin, carboplatin] | neither caboplatin or calcitriol had any significant activity | did not demonstrate any significant activity |  |  |  | 
3 | N.N.[Cl][Pt][Cl] [cisplatin] |  | did not demonstrate any significant activity |  |  |  | 
4 | C[C@@H]1O[C@@H](O[C@H]2C[C@@H](O)[C@]3(CO)[C@H]4[C@H](O)C[C@]5(C)[C@@H](C6=CC(=O)OC6)CC[C@]5(O)[C@@H]4CC[C@]3(O)C2)[C@H](O)[C@H](O)[C@H]1O [ouabain] |  |  | did not induce any significant toxicity; also recorded: no signs of toxicity were observed | did not differ significantly | still induced significant apoptosis | erradicated Y79 cells
